The results in this text go back to US9850205B2, “Stable apremilast crystalline form II free of solvate and method of making the same” (UTOPHARM (SHANGHAI) CO., LTD, priority 2015, dated 2017).

The structures appear in SMILES notation.

The nature of data set [1]: Influence factors (stability) experiments of Form I, Form II and Form B. The format is physicochemical. An excerpt: 2. Influence factors experiments of Form I, Form II and Form B:
In addition, the same batch of raw materials was crystallized in acetone/ethyl alcohol to produce Form B and crystallized in acetone/water to produce Form I and Form II, then compare the appearance and color of the products.

A short description of data set [2]: Thermostability experiments: forms suspended in water and stirred at 60 and 100° C. The note with it: for increased amount of related substance, N-deacetylates: stirred in water at 100° C. for 48 h; for electrostatic effect: suspended in water at 100° C., stirred 24 h, filtered and dried; for DSC / X-ray powder diffraction (change) / melting temperature (change) / X-ray powder diffraction pattern (change): suspended in water; for melting temperature (change): numbers are decreases. The format is physicochemical. The method, then: Apremilast Crystalline Form II and Form B were suspended in water and stirred for 24-48 h under 60 and 100° C., respectively, then cooled, filtered, and dried, and X-ray powder diffraction patterns, DSC patterns, melting temperature and related substance were determined (see Table 4).
Apremilast Crystalline Form II and Form B were suspended in water, respectively, stirred at 60-100° C. for 48 h sampled at a certain time interval and filtered, dried to determine the change of melting temperature; sampled at 24 h, 48 h, filtered and dried to determine change of XRPD patterns, DSC patterns, melting temperature, electrostatic effects, and related substances.

Data set [3] can be described thus: Crystalline form conversion study, suspension in acetone/water at reflux. The format is physicochemical. To be noted: suspended in acetone/water (1:3), refluxing temperature; Form B 36 h, Form D 8-10 h. The method, then:
In addition, pure Form II can obtained by suspending crashed Forms A, B, C, D, E, F and/or G in acetone/water and stirring at 50° C. to refluxing temperature for 1-48 h.
Apremilast Crystalline Form B (5.0 g, particle size less than 300 mesh) was suspended in 60 ml acetone/water (1:3), heated to refluxing temperature and stirred for 36 h, then cooled while stirring, filtered, dried at 60° C. to obtain about 4.88 g of Apremilast Crystalline Form II, mp:148.3-150.3° C.
Apremilast Crystalline Form D (5.0 g, particle size less than 200mesh) was suspended in 60m1 acetone/water (1:3), heated to refluxing temperature and stirred for 8-10 h, then cooled while stirring, filtered, dried at 60° C. to obtain about 4.60 g of Apremilast Crystalline Form II, mp:148.3-150.5° C.

Data set [4] can be described thus: Comparison of pharmacokinetics in Beagle dogs (oral capsule of crude drug powder, LC-MS/MS plasma concentration). The note with it: both sexes, dog, 30 mg crude drug powder capsule, single period. The format is in vivo. The method, then:
6 healthy Beagle dogs weight 6-8 kg with half males and half females were divided randomly into 2 groups, each group having 3.
According to the administration route and dosage amounts, medicine is administrated orally and the dosage is 30 mg/dog/time. After crude drug powder of two crystal forms being weighed about 30 mg respectively, capsule shell is used to be filled and 10 ml water is used accompanied with administration. The Beagle dogs were fasted for 12 hours before the study, and food is provided in 4 hours after administration. Water deprivation was not required during the whole study. Specific administration groups are designed in the table as below.
0.5ml venous blood was collected via the small saphenous veins 10, 30 min, 1, 2, 4, 6, 8, 10, 12, 24, 48 and 72 h before (0 hour) or after administration. After centrifugation for 5 minutes at 8000 rpm, blood plasma is separated out and placed in anti freezing plastic test tube for storing in refrigerator at −20 C temporarily.
Concentration of APST in blood plasma is tested by LC-MS/MS method. The linearity range of APST testing is 5 to 5000 ng/ml, and the linear is good.

A short description of data set [5]: In vivo pharmacokinetic comparison study in SD rats (gavage, LC-MS/MS plasma concentration). To be noted: for AUC(0-t) / Cmax / Tmax: SD (Sprague-Dawley), rat, plasma, po, gavage 10 mg/kg suspension; for AUC(0-t): read-out: area under the curve AUC0-t; for Cmax: read-out: peak concentrations Cmax; for Tmax: 10 mg/kg. The method, then:
Twelve SD rats weight 200-220 g with half males and half females were divided randomly into 2 groups (named as group A and group B).
According to the administration route and dosage amounts provided in FDA references, the two crystalline forms were given by gavage to investigate their pharmacokinetic behaviors in rats. The dosage amounts of the two forms are both 10 mg/kg (solvent is 1% carboxymethylcellulose). The rats were fasted for 12 hs before the study, food was provided 4 hs after administration, water deprivation was not required during the whole study. • Blood was collected via the fundus venous plexus 10, 30mins, 1, 2, 4, 6, 8, 10, 12 and 24 hs after administration. The collected blood was placed on ice and centrifuged for 5min at 8000 rpm, plasma was separated, and cryoperserved in a −20° C. refrigerator. LC-MS/MS was used to determine the concentration of APST in plasma. Linearity range of APST in plasma is 2-1000ng/ml, the linearity was good.

The nature of data set [6]: Electrostatic effect under the same micronization condition. Type of data set: physicochemical. An excerpt: Large electrostatic effect will adversely affect the preparation processing.
The nature of data set [7]: Solubility of Form II and Form B in common solvents. The format is physicochemical. To be noted: acetone, butanone, ethyl alcohol, methanol, ethyl acetate, acetonitrile, dichloromethane, tetrahydrofuran, petroleum ether, n-hexane, water. The method, then:
The solubility of Form II and Form B in common solvents such as acetone, butanone, ethyl alcohol, methanol, ethyl acetate, acetonitrile, dichloromethane, tetrahydrofuran, petroleum ether, n-hexane, water was tested and compared.

The mark [8] stands for this setting: both sexes, SD rats, males and females together, read-out: time to peak Tmax.
The mark [9] stands for this setting: both sexes, SD rats, males and females together, read-out: time to peak Tmax (median).
Where [10] appears, read: both sexes, SD rats, males and females together.
Where [11] appears, read: female, female rats, read-out: time to peak Tmax.
The mark [12] stands for this setting: female, female rats, read-out: time to peak Tmax (median).
The mark [13] stands for this setting: male, male rats, read-out: time to peak Tmax.
Where [14] appears, read: male, male rats, read-out: time to peak Tmax (median).

The AUC(0-inf) is total exposure, with the tail of the curve extrapolated. Read a high AUC(0-inf) as more exposure. The term Tmax denotes the time at which the peak concentration occurs. As for `CCOc1cc([C@@H](CS(C)(=O)=O)N2C(=O)c3cccc(NC(C)=O)c3C2=O)ccc1OC` [Form B, (+)-2-[1-(3-ethoxy-4-methoxyphenyl)-2-methylsulfonylethyl]-4-acetylaminoisoindoline-1,3-dione], the “stability under high temperature and high humidity conditions” value (from here on “stability”) in data set [1] is “stable”. Moreover, the “moisture absorption/humidity 92.5% weight gain” value in data set [1] is given as less than 1.0%. In addition, the “increased amount of related substance, N-deacetylates” value in data set [2] was 0.059%. Further, the electrostatic effect entry is “serious electrostatic effect” in data set [2] and “higher electrostatic effect” in data set [6]. Besides, the DSC in data set [2] (60° C., 48 h) is 157 °C. In addition, the “X-ray powder diffraction (change)” value in data set [2] (60° C., 48 h) was “weak”. Moreover, the “melting temperature (change)” value in data set [2] (60° C., 48 h) is “Decreased 2-3 °C”; in data set [2] (100° C., 24~48 h) it was “Decreased 3-4 °C”. The “X-ray powder diffraction pattern (change)” value in data set [2] (100° C., 24~48 h) is “Weak absorption”. Also, the “conversion of crystalline form (XRPD pattern and DSC pattern)” value in data set [3] is “complete conversion to Form II”. The compound further displayed a total exposure AUC(0-inf) in data set [4] of 38500 ± 20500 ng·h/mL. The AUC(0-t) in data set [4] was 38000 ± 20500 ng·h/mL; in data set [5] (female rats), 7000 ± 1140 ng·h/mL; in data set [5] (male rats), 530 ± 70 ng·h/mL; in data set [5] (setting [10]), 3770 ± 3620 ng·h/mL. Moreover, the Cmax in data set [4] was 2410 ± 377 ng/mL; in data set [5] (female rats), 904 ± 28.5 ng/mL; in data set [5] (male rats) it was 142 ± 14 ng/mL; in data set [5] (setting [10]) it was 523 ± 417 ng/mL. The Tmax in data set [4] was 1.7 ± 0.6 h; in data set [5] (setting [8]) it was 1.6 h; in data set [5] (setting [9]), 2.5 h; in data set [5] (setting [11]) it was 2 to 6 h; in data set [5] (setting [12]), 4 h; in data set [5] (setting [13]), 1 h. Besides, the Tmax in data set [5] (setting [14]) stood at 1 h. Further, in data set [5] (SD rats, males and females together, gavage 10 mg/kg), the “exposure of APST-B as percentage of the exposure of APST-II” value is recorded as “about 68.07%”. For the same compound, the “AUC0-t of APST-B as percentage of that of APST-II” value in data set [5] (female rats, gavage 10 mg/kg) is 65.9%; in data set [5] (male rats, gavage 10 mg/kg), approximately 119.0%. The “Cmax of APST-B as percentage of that of APST-II” value in data set [5] (male rats, gavage 10 mg/kg) is on record as “about 132.3%”. Also, the “solubility, Form II compared with Form B” value in data set [7] was “essentially no difference”.
Take `CCOc1cc([C@@H](CS(C)(=O)=O)N2C(=O)c3cccc(NC(C)=O)c3C2=O)ccc1OC` [Form I, (+)-2-[1-(3-ethoxy-4-methoxyphenyl)-2-methylsulfonylethyl]-4-acetylaminoisoindoline-1,3-dione]: in data set [1], the “stability” value was “stable”; the “Change of related substance/high temperature for 10 days” value was “Essentially no”; the “moisture absorption/humidity 92.5% Change of related substances” value is listed as “essentially no”; the “Change of related substances/light exposure for 10 days” value is “essentially no”.
Turning to `CCOc1cc(C(CS(C)(=O)=O)N2C(=O)c3cccc(NC(C)=O)c3C2=O)ccc1OC` (single isomer, unassigned; (+)) [Form II, (+)-2-[1-(3-ethoxy-4-methoxyphenyl)-2-methylsulfonylethyl]-4-acetylaminoisoindoline-1,3-dione], in data set [1], the “stability” value is “stable”; the “Change of related substance/high temperature for 10 days” value is recorded as “Essentially no”; the “moisture absorption/humidity 92.5% Change of related substances” value is “essentially no”; the “moisture absorption/humidity 92.5% weight gain” value was less than 1.0%. In addition, the “Change of related substances/light exposure for 10 days” value in data set [1] is recorded as “essentially no”. Further, in data set [2], the “increased amount of related substance, N-deacetylates” value is on record as 0.046% and the electrostatic effect entry is given as “essentially no electrostatic effect”. Also, in data set [2] (60° C., 48 h), the DSC came out at 150 °C, the “X-ray powder diffraction (change)” value was “essentially no” and the “melting temperature (change)” value was “essentially no”. In data set [2] (100° C., 24~48 h), the DSC turned out to be 150 °C, the “X-ray powder diffraction pattern (change)” value is given as “essentially no” and the “melting temperature (change)” value was “essentially no”. In data set [4], the area under the curve AUC(0-inf) worked out at 38200 ± 13000 ng·h/mL, the AUC(0-t) amounted to 37700 ± 22400 ng·h/mL, the Cmax was 2050 ± 357 ng/mL and the Tmax came out at 9 ± 13 h. Also, in data set [5] (female rats), the AUC(0-t) came to 10600 ± 1050 ng·h/mL and the Cmax came to 906 ± 179 ng/mL. Moreover, in data set [5] (male rats), the AUC(0-t) amounted to 446 ± 81.2 ng·h/mL and the Cmax is 108 ± 16.1 ng/mL. For the same compound, in data set [5] (setting [8]), the Tmax is 1 to 6 h. Moreover, the time to peak (Tmax) in data set [5] (setting [9]) amounted to 3 h. Besides, in data set [5] (setting [10]), the AUC(0-t) worked out at 5530 ± 5610 ng·h/mL and the Cmax stood at 507 ± 452 ng/mL. Further, the “exposure of Form II relative to the exposure of Form B” value in data set [5] (female SD rats) was 1.5 times. Also, the Tmax in data set [5] (setting [11]) was in the range of 4 to 6 h. The time of peak concentration (Tmax) in data set [5] (setting [12]) is 6 h. Also, the time of peak concentration (Tmax) in data set [5] (setting [13]) was in the range of 1 to 2 h. Also, in data set [5] (setting [14]), the Tmax stood at 1 h. Besides, the electrostatic effect result in data set [6] is “weak or no electrostatic effect”. The “solubility, Form II compared with Form B” value in data set [7] is recorded as “essentially no difference”.
